Measurements published in publication PMC4339887, “Selective Sirt2 inhibition by ligand-induced rearrangement of the active site” (Nature Communications, 2015).
Entries after “also recorded” stand apart in the source; their conditions may differ.

What was measured:
[1] = molecular target: T1, human Sirt5 (Homo sapiens, UniProt Q9NXA8); experiment: HPLC-based assay, non-labelled succinyl-lysine peptide; type: biochemical; details: 200 μM, succinyl-lysine substrate
T1 construct: human Sirt5_34–302 (Uniprot: Q9NXA8); made in house
T1 sequence (Q9NXA8 34-302): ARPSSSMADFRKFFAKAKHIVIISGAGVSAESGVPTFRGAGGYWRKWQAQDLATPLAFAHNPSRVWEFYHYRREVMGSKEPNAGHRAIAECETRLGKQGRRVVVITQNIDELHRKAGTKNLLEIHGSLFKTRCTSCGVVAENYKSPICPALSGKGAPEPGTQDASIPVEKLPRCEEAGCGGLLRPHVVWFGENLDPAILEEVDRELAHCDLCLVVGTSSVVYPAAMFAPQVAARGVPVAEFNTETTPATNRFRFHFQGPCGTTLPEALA

[2] = molecular target: T2, KDAC1 (Homo sapiens, UniProt Q13547); experiment: in vitro KDAC1/6 assay, substrate ZMAL; type: biochemical
T2 construct: purchased Enzo Life Sciences
Description: (§1) 5 times), Fmoc deprotection and amino acid coupling were repeated until the last amino acid was coupled and the Fmoc group was removed. The resin was washed with dichloromethane (DCM, 3 min, 5 times), methanol (5 min, 3 times) and DCM (3 min, 5 times). […]
(§2) acid (TFA) at RT (1 h, 2 times). Cleaved peptide was precipitated with cold diethylether, filtrated and dried. The peptide was purified by semi-preparative HPLC (Merck-Hitachi High Speed LC system) using a Merck Hibar LiChrosorb RP-8 column (250–25 mm, 7 μm). For separation a linear gradient from 20–50% (vol/vol) acetonitrile (ACN) with 0.1% (vol/vol) TFA in 60 min was applied (flow-rate: 8 ml min-1). […]
(§3) high-throughput fluorescence-based assay using the substrate ZMAL (Z-Lys(Acetyl)- […]
(§4) A solution that contained DMSO was used a negative
(§5) The reaction was started through the addition of KDAC1 (Enzo Life Sciences, 10 μL) or […]
(§6) initial state conditions the substrate conversion was adjusted to 10–30% prior to inhibition tests. The reaction was stopped by the addition of a solution containing trypsin and TSA […]
(§7) Then fluorescence intensity of the released fluorophore of the deacetylated lysine derivative was measured in a microplate […]
(§8) reader (BMG Polarstar, Oex 390 nm, Oem 460 nm). The amount of inhibition was determined with respect to the mixture with only DMSO.
(§9) Immunocytochemistry equipment and settings. […]

[3] = molecular target: T3, KDAC6 (Homo sapiens, UniProt Q9UBN7); experiment: in vitro KDAC1/6 assay, substrate ZMAL; type: biochemical
T3 construct: purchased Enzo Life Sciences
T3 sequence (Q9UBN7 1-1215): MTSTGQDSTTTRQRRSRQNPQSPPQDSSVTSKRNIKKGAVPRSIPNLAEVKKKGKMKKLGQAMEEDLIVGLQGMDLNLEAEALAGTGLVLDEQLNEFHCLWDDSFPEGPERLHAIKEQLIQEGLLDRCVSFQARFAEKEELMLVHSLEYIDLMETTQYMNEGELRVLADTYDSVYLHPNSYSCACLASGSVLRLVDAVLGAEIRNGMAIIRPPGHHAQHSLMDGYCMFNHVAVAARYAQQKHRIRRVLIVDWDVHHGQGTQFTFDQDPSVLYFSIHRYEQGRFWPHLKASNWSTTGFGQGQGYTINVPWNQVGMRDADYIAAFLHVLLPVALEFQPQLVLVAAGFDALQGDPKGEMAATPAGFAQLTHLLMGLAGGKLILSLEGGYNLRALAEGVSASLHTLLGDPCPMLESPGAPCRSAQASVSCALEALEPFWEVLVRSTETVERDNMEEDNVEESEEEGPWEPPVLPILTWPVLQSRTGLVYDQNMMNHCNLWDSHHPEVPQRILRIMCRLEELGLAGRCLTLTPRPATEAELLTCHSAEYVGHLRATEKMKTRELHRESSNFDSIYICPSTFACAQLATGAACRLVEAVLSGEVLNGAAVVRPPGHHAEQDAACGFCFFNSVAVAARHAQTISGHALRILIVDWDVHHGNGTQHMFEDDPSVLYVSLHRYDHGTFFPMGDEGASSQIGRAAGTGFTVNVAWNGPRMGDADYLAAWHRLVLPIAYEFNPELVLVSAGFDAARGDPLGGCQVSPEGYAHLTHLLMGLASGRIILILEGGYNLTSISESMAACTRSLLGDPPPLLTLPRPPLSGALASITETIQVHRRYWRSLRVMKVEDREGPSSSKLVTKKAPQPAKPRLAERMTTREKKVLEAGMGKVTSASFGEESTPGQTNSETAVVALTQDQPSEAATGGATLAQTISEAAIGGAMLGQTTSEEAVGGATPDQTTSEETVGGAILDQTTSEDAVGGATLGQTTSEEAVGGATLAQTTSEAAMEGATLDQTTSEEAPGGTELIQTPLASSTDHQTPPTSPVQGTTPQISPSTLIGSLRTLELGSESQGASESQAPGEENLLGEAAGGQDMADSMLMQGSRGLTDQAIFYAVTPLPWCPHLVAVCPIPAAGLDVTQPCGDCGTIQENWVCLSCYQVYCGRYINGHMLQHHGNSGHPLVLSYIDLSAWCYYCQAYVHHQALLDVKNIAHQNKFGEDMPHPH
Description: as §1, §2, §3, §4, §5, §6, §7, §8, §9

[4] = molecular target: T4, human Sirt2 (Homo sapiens, UniProt Q8IXJ6); experiment: HPLC-based conversion assay, non-labelled acetyl-lysine α-tubulin peptide; details: SirReal2 100 μM, non-labelled acetyl-lysine oligopeptide
T4 sequence (Q8IXJ6 25-389): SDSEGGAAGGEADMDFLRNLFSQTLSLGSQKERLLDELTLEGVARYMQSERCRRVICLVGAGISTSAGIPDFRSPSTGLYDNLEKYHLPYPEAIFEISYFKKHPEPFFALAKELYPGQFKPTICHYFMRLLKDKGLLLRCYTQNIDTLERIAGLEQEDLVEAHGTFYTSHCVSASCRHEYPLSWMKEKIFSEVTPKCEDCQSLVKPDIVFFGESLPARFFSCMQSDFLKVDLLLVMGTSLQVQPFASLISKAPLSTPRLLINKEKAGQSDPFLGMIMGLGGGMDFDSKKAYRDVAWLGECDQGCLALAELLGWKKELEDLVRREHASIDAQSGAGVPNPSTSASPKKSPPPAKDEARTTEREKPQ

T2 sequence (Q13547 whole entry): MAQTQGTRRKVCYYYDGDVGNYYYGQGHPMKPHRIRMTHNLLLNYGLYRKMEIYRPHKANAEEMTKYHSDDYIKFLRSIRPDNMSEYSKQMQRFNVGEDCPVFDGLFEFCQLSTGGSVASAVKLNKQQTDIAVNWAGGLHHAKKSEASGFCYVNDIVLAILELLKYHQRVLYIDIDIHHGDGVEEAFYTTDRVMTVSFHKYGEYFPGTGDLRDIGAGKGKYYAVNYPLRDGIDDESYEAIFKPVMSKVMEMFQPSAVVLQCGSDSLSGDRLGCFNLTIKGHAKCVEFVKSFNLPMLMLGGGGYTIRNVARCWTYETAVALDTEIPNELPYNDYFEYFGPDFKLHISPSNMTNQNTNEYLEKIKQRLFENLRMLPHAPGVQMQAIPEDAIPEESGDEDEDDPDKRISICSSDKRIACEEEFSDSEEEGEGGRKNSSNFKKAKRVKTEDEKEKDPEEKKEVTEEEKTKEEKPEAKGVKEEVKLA

With Cc1cc(C)nc(SCC(=O)Nc2ncc(Cc3cccc4ccccc34)s2)n1 [SirReal2] the “effect on activity of Sirt5” value [1] was “very little effect”, the “activity of KDAC1” value [2] was “does not affect” and the “activity of KDAC6” value [3] was “does not affect; also recorded: not affected”. For the same compound, the “activity of Sirt2” value [4] was “substantially reduced”.
